Results as given in patent publication US9801895B1, “Cream formulation with amphotericin B and oil in water useful for topical application to mucous tissue and skin against diseases produced by leishmaniasis” (priority 2013, dated 2017).

Legend:
[1] = In vivo toxicity in infected hamsters (body weight, serum analytes, histopathology); set-up: species or system Golden hamsters (Mesocricetus aerates)
Procedure: (§1) The evaluation of the therapeutic response and toxicity of the cream formulation was carried out in the hamster model for cutaneous leishmaniasis (Robledo et al, 2012) using the Golden hamsters (Mesocricetus aerates). Animals were handled under the same micro and macro environmental conditions. Experimental groups were named accordingly: A. Cream product formulation once a day; B. Cream product formulation twice a day; C. Placebo once a day and D. Placebo twice a day. Additionally, two groups of animals were used as control groups. One of them (E) was used to evaluate meglumine antimoniate as a control medicine at the curative (120 mg/kg day×10 days) and the other group (F) were infected and untreated animals.
Hamsters were weighed weekly from the beginning of the experiment until three months after the end of the treatment.
Effect of Treatments on Serum Levels of BUN, Creatinine and ALT:

[2] = rat, in vivo
Source text: In Vivo Skin Absorption/Penetration. This Study Followed the OECD Test Guideline 427.
In this method the test substance is applied to the clipped skin of animals and is allowed to remain in contact with the skin for a fixed period of time under a non-occlusive cover to prevent ingestion of the test preparation. At the end of the exposure time the cover is removed and the skin is cleaned with an appropriate cleansing agent, the cover and the cleansing materials are retained for analysis and a fresh cover applied. Animals were exposed to the test preparation during 8 hours. One group was killed at the end of the exposure period. Other group was sacrificed at 48 hours and a third group was sacrificed at 72 hours after the end of exposure. The samples were assayed for concentration of amphotericin B by HPLC and the degree of percutaneous absorption was estimated.
Dosage and treatment groups: 12 animals were used, divided into three groups, which were applied the product under study. Four animals for each time interval: 8 h, 48 h and 72 h.
Environmental conditions and housing: The animals were randomly distributed in individual cages. During the experiment, water management and food was ad libitum. […]

[3] = tested on: reconstructed human tissue model (RHE); format: cell-based
Source text: In Vitro Skin Corrosion Test (Adapted from OECD Guideline No. 431):
To evaluate skin corrosion a reconstructed human tissue model (RHE) in three dimensions was used.

[4] = tested on: Reconstructed Human corneal Epithelium tissue (HCE); format: cell-based
Procedure: In Vitro Eye Irritation (Adapted from OECD Guideline No. 439):
For evaluation of eye irritation (cornea tissue) we used the Acute Eye irritation test using Reconstructed Human corneal Epithelium tissue (HCE).
Each test substance (cream product formulation, placebo, positive and negative controls) was applied topically. After 10 minutes, 2 hours and 24 hours of treatment cell viability was determined using MTT.

[5] = biphasic elimination described for amphotericin B; cited from earlier work
[6] = tested on: Trypanosoma cruzi (T. cruzi); conditions: given soon after infection at the onset of the acute phase; cited from earlier work
3T3 = assay: In vitro 3T3 NRU phototoxicity test (OECD Guideline No 432); format: cell-based
Source text: Phototoxicity/Photosensitisation Potential: The OECD Guideline No 432 was Followed.

L. amazonensis = assay: In vivo therapeutic response in the hamster model for cutaneous leishmaniasis; set-up: species or system Golden hamsters (Mesocricetus aerates); conditions: intramuscular, once a day x 10 days, 120 mg/kg day
Procedure: In Vivo Therapeutic Response of Cream Product Formulation on L. amazonensis
as §1
The effectiveness of each treatment was assessed comparing the lesion sizes prior to and after treatments, using the following score system: cure (healing of 100% area and complete disappearance of the lesion); clinical improvement (reducing the size of the lesion in >30% of the area); clinical failure (reduction in the size of the lesion lower than 30% or increase in the size of the lesion); relapse (reactivation of lesion after cure).

C[C@@H]1[C@H](O)[C@@H](C)/C=C/C=C/C=C/C=C/C=C/C=C/C=C/[C@H](O[C@@H]2O[C@H](C)[C@@H](O)[C@H](N)[C@@H]2O)C[C@@H]2O[C@](O)(C[C@@H](O)C[C@@H](O)[C@H](O)CC[C@@H](O)C[C@@H](O)CC(=O)O[C@H]1C)C[C@H](O)[C@H]2C(=O)O [amphotericin B, Amphotericin B]
kidney histopathology [1]: no significant changes
liver histopathology ([1]; one or two applications per day): no lesions or significant changes
amphotericin B in urine [2]: not detected
skin corrosion [3]: does not show skin corrosion
eye (corneal) irritation [4]: no corneal irritation
elimination half life, last elimination phase [5]: 15 days

O=C(Cn1ccnc1[N+](=O)[O-])NCc1ccccc1 [benznidazole]
effectiveness in curing the disease [6]: ~100%

C[C@H]1c2cccc(O)c2C(=O)C2=C(O)[C@]3(O)C(=O)C(C(N)=O)=C(O)[C@@H](N(C)C)[C@@H]3[C@@H](O)[C@@H]21 [doxycycline]
phototoxicity classification (3T3): phototoxic
PIF (3T3; exposure to light): 9.3

meglumine antimoniate
efficacy (L. amazonensis): 71%
